Results as given in paper PMC4131897 (Biochemistry, 2014).

Target: T1, BjPutA (proline utilization A) (Bradyrhizobium diazoefficiens, UniProt Q89E26, T348Y)
T1 sequence (Q89E26 1-999 T348Y): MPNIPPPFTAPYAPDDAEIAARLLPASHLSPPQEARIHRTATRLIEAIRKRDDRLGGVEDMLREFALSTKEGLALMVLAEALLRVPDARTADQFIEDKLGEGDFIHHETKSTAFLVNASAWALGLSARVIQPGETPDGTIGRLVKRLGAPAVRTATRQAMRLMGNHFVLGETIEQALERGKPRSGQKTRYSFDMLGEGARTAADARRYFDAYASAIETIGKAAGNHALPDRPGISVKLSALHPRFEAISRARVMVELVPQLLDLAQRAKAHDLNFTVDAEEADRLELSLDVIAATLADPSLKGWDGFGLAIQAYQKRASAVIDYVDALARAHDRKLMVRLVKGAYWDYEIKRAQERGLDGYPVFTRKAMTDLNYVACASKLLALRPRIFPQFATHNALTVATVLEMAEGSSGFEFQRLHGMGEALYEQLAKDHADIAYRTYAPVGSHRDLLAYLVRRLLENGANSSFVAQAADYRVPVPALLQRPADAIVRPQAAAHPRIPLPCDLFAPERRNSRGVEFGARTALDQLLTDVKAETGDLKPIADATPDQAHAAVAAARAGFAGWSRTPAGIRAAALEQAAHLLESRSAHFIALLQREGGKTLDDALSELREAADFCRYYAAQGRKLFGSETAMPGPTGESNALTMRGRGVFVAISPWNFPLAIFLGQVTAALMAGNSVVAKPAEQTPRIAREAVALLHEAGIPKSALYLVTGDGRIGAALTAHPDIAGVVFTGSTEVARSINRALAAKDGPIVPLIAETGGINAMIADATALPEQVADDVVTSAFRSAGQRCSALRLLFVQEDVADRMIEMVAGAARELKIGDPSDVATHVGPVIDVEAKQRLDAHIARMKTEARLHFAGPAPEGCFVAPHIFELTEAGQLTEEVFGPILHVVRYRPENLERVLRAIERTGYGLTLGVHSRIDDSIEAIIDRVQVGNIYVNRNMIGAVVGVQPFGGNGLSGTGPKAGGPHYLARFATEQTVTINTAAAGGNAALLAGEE
Assay: intrinsic tryptophan fluorescence quenching
Assay type: binding

- Kd: 0.75 ± 0.06 µM
Compound: NC(=O)c1ccc[n+]([C@@H]2O[C@H](COP(=O)(O)OP(=O)(O)OC[C@H]3O[C@@H](n4cnc5c(N)ncnc54)[C@H](O)[C@@H]3O)[C@@H](O)[C@H]2O)c1 [NAD^+]
